This note sets out measurements from patent US5714476A, “Process for preparing compositions containing neotrehalose” (Kabushiki Kaisha Hayashibara Seibutsu Kagaku Kenkyujo, priority 1990, dated 1998).

Data set [1] in a line: Heat of dissolution. It counts as physicochemical. To be noted: crystal.
Source text: The physicochemical properties of lactoneotrehalose were studied with a high-purity crystalline lactoneotrehalose specimen prepared by the method in Experiment 1-1.
The nature of data set [2]: Hygroscopicity and deliquescence. It counts as physicochemical. As to conditions: crystal. An excerpt: (§1) The physicochemical properties of neotrehalose were studied with a high-purity crystalline neotrehalose specimen prepared by the method in Experiment 2-1.
The nature of data set [3]: Acidity of aqueous solution. It counts as physicochemical.
Source text: as §1

The test system of data set [4] is β-galactosidase. Kind of data set: Action of β-galactosidase. It counts as biochemical.
Data set [5] relates to β-glucosidase. Kind of data set: Action of β-glucosidase. It counts as biochemical.
The nature of data set [6]: Solubility in water at 25° C. It counts as physicochemical. As to conditions: crystal in the form of anhydride, in 100 g water at 25° C.
Source text: as §1

Data set [7] is described as follows: Solubility in solvents. It counts as physicochemical.
Source text: as §1

Data set [8] has as its system α-glucosidase. In words: Action of α-glucosidase. It counts as biochemical.
Source text: as §1

Data set [9] deals with trehalase. In words: Hydrolysis by trehalase. It counts as biochemical.
Source text: as §1

Data set [10] can be described thus: Digestion test: oral load test, blood sugar and insulin levels. It counts as in vivo. As to conditions: healthy volunteers. The source says:
In accordance with the method described in H. Atsuji et al., Journal of Clinical Nutrition, Vol.41, Vol.2, pp.200-208 (1972), the load test by orally-administering to healthy volunteers a crystalline neotrehalose specimen prepared by the method in Experiment 2-1 was done, and their blood was sampled at prescribed time intervals and subjected to the measurements of the blood sugar and insulin levels. As control, glucose was used.

In data set [11] the test system is 7 week-old dd mice. Kind of data set: Acute toxicity, oral, mice. It counts as in vivo.
Source text: A crystalline neotrehalose specimen, prepared by the method in Experiment 2-1, was orally administered to 7 week-old dd mice for acute toxicity test.

In turn, `OC[C@H]1O[C@@H](O[C@H]2[C@H](O)[C@@H](O)[C@H](O[C@H]3O[C@H](CO)[C@@H](O)[C@H](O)[C@H]3O)O[C@@H]2CO)[C@H](O)[C@@H](O)[C@H]1O` [lactoneotrehalose, O-β-D-galactopyranosyl-(1→4)-O-β-D-glucopyranosyl α-D-glucopyranoside] had a Heat of dissolution in [1] of 20.0 cal/g. In addition, the hygroscopicity and deliquescence result in [2] was “Free of hygroscopicity and deliquescence”. Moreover, the “acidity of an aqueous solution of the crystal” value in data set [3] is “neutral or slight acidity”. The “products formed by the action of β-galactosidase” value in data set [4] is “D-galactose and neotrehalose are formed”. Moreover, the “products formed by the action of β-glucosidase” value in data set [5] was “D-glucose and lactose are formed”.

Consider `OC[C@H]1O[C@@H](O[C@H]2O[C@H](CO)[C@@H](O)[C@H](O)[C@H]2O)[C@H](O)[C@@H](O)[C@@H]1O` [neotrehalose, O-α-D-glucopyranosyl β-D-glucopyranoside], for which, in data set [6], the Solubility result is listed as “Fifty-five”. The Solubility in solvents result is on record as “Readily soluble” in data set [7] (0.1N hydrochloric acid); “Readily soluble” in data set [7] (0.1N sodium hydroxide); “insoluble” in [7] (chloroform); “scarcely soluble” in data set [7] (ethanol); “insoluble” in data set [7] (ethyl acetate); “scarcely soluble” in data set [7] (methanol). Besides, in data set [7] (water), the Solubility in solvents result was “Readily soluble”. Besides, the hygroscopicity and deliquescence entry in [2] was “Free of hygroscopicity and deliquescence”. Besides, in data set [3], the “acidity of an aqueous solution of the crystal” value was “neutral or slight acidity”. For the same compound, in [8], the “product formed by the action of α-glucosidase” value is “D-glucose is formed”. For the same compound, the hydrolysis by trehalase result in [9] is listed as “not hydrolyzed by trehalase”. For the same compound, the “digestion, absorption, metabolism and utilization” value in data set [10] was “readily digested, absorbed, metabolized and utilized into energy”. Also, the “time of maximum level of blood sugar after the administration” value in [10] fell in the range of 0.5 to 1 h. The “time of maximum level of insulin after the administration” value in data set [10] lay within 0.5 to 1 h. In addition, the “blood sugar and insulin behaviour compared with glucose” value in data set [10] (control glucose) is listed as “behaved similarly as to glucose”. Moreover, in [11], the toxicity result was “extremely low”. Further, the animal death entry in data set [11] (up to 5 g of the specimen, higher dose was difficult to do) is reported as “no animal death was noted”.
